# Patent US20250177354A1, “THERAPEUTIC COMBINATIONS, COMPOSITIONS, AND METHODS FOR DESIGNING AND PRODUCING EN[…]” (Mindstate Design Labs, Inc., priority 2022, published 2025)
# “Also recorded” adds a separate entry of the source.
# Tests used:
# α2-adrenergic receptor = conditions: cited from earlier work
# individual = experiment: Self-administration of combinations and single-compound controls, subjective reports recorded by the individual; assay type: in vivo, human
# Experimental: In several examples of such administration, the combinations as follows were self-administered, with the subjective reports recorded by the individual during and/or following such administration, as below.
# The following example was performed for purposes of and is presented as a control.
# In an example, the combination as set forth below was self-administered, with the report as follows.
# The working example below was performed for purposes of and is presented as a control.
# The working examples below were also performed for purposes of and are presented as controls, using an escalating dose of a single primer alone, applicable to this and other Examples.
# subjects [1] = conditions: cited from earlier work
# subjects [2] = conditions: subjects administered MDMA; cited from earlier work
# [3] = cited from earlier work
# I1 Imidazoline Sites = conditions: cited from earlier work; for Selectivity Ratio: I1 relative to α2 (α2 value / I1 value)
# I1 = conditions: cited from earlier work
# [4] = control: 4.0 mg 5-MeO-MiPT alone
# [5] = control: 8.0 mg 5-MeO-MiPT alone
# [6] = control: 10.0 mg 5-MeO-MiPT alone
smiles,measurement,setting,value
"CC1CCC(Nc2ccc(I)cc2Cl)=N1 (centres unmarked) [LNP911, 2-(2-chloro-4-iodo-phenylamino)-5-methyl-pyrroline]",affinity or activity for the α2-adrenergic receptor,α2-adrenergic receptor,no detectable affinity or activity
"COc1ccc2[nH]cc(CCN(C)C(C)C)c2c1 [Example 5-MeO-MiPT, N-isopropyl-5-methoxy-N-methyltryptamine]",physical discomfort (self-report),individual; [4],my brain was so heavy and tired
same,subjective effects (self-report),individual; [4],"My emotion is quite neutral, not much different from the normal state"
same,subjective effects (self-report),individual; control: 6.0 mg 5-MeO-MiPT alone,generally emotionally neutral
same,physical discomfort (self-report),individual; [5],"my body was uncoordinated, and I trembled a lot"
same,subjective effects (self-report),individual; [5],There was no emergence of a stable mental state; also recorded: There was not much feeling
same,physical discomfort (self-report),individual; [6],My stomach was so upset that I had to vomit
same,subjective effects (self-report),individual; [6],void of emotion and mental activities
"CC1CCC(Nc2cc(N=[N+]=[N-])c(I)cc2Cl)=N1 (centres unmarked) [LNP906, 2-(5-azido-2-chloro-4-iodo-phenyl-amino)-5-methyl-pyrroline]",affinity or activity for the α2-adrenergic receptor,α2-adrenergic receptor,no detectable affinity or activity
"CC1CC(NC(C2CC2)C2CC2)=NC1C (centres unmarked) [LNP509, dicyclopropylmethyl-(4,5-dimethyl-4,5-dihydro-3H-pyrrol-2-yl)-amine]",affinity or activity for the α2-adrenergic receptor,α2-adrenergic receptor,no detectable affinity or activity
"CNC(C)Cc1ccc2c(c1)OCO2 (racemic) [MDMA, (RS)-1-(1,3-Benzo-dioxol-5-yl)-N-methylpropan-2-amine]",subject-reported sociability,subjects [1]; following administration of MDMA,increases in sociability
same,brain imaging responses to facial expressions,subjects [1]; subjects administered MDMA,attenuated responses to angry facial expressions and enhanced responses to happy expressions
same,mental state decoding (mind reading) of social cues,subjects [2],"enhanced mental state decoding of positive stimuli, such as friendliness, and impaired the accuracy of mind reading for negative stimuli"
same,"effect on a stutter (case, Shulgin & Shulgin, 1991)",[3]; graduate student,dramatic improvements in a stutter
same,"efficacy in autistic social impairment (systematic review, Chaliha, 2021)",[3]; in vivo,efficacious as a pharmacological treatment
"C1COC(NC(C2CC2)C2CC2)=N1 [Rilmenidine, N-(dicyclopropylmethyl)-4,5-dihydro-1,3-oxazol-2-amine]",subjective effects (self-report),"individual; control: 1.0 mg Rilmenidine alone, 9:00 pm","relaxing, my chest less strained; also recorded: the effect was subtle"
same,Selectivity Ratio,I1 Imidazoline Sites,29.51
same,selectivity for I1 relative to α2 receptors,I1 Imidazoline Sites; I1 relative to α2 receptors,about 30 fold
"COc1nc(C)nc(Cl)c1NC1=NCCN1 [Moxonidine, 4-Chloro-N-(4,5-dihydro-1H-imidazol-2-yl)-6-methoxy-2-methylpyrimidin-5-amine]",subjective effects (self-report),"individual; control: 0.2 mg Moxonidine alone, 12:30 pm","more focused, probably more centered, less distracted by thinking; also recorded: All very subtle but detectable"
Cc1c(Cl)cccc1NC1=NCC(C)C1 (centres unmarked) [LNP599],affinity or activity for the α2-adrenergic receptor,α2-adrenergic receptor,no detectable affinity or activity
same,affinity for I1,I1,nanomolar affinity
"CC1CNC(Nc2c(Cl)cccc2Cl)=N1 (centres unmarked) [LNP630, (2,6-dichloro-phenyl)-(4-methyl-4,5-dihydro-1H-imidazol-2-yl)-amine]",affinity or activity for the α2-adrenergic receptor,α2-adrenergic receptor,no detectable affinity or activity
CC(Oc1c(Cl)cccc1Cl)C1=NCCN1 (centres unmarked) [Lofexidine],Selectivity Ratio,I1 Imidazoline Sites,3.63
